Assay results reported in ChEMBL document CHEMBL4706479, “Novel Aryloxyethyl Derivatives of 1-(1-Benzoylpiperidin-4-yl)methanamine as the Extracellular Regulated Kinases 1/2 (ERK1/2) Phosphorylation-Preferring Serotonin 5-HT Receptor-Biased Agonists with Robust Antidepressant-like Activity” (J Med Chem, 2019).

How the values were obtained:
[1] = biological target: T1, Adrenergic receptor alpha-1 (Rattus norvegicus, UniProt P15823+P23944+P43140); assay: Displacement of [3H]-prazosin from alpha1 adrenergic receptor in rat cortex measured after 30 mins by microbeta2 scintillation counting method; assay type: tissue-based
T1 sequence (P15823 whole entry): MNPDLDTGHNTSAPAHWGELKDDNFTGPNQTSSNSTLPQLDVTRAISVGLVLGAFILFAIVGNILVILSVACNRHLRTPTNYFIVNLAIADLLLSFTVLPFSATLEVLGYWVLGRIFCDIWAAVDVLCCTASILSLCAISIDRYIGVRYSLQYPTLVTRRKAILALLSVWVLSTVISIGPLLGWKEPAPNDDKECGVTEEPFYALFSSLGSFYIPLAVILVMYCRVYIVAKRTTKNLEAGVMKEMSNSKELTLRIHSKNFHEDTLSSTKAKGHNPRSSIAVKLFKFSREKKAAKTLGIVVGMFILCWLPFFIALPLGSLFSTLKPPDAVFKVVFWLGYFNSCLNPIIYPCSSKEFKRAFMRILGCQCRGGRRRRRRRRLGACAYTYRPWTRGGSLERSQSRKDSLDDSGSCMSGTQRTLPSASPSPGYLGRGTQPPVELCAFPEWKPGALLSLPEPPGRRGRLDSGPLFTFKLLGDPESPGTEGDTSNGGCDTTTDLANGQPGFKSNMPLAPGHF
T1 sequence (P23944 whole entry): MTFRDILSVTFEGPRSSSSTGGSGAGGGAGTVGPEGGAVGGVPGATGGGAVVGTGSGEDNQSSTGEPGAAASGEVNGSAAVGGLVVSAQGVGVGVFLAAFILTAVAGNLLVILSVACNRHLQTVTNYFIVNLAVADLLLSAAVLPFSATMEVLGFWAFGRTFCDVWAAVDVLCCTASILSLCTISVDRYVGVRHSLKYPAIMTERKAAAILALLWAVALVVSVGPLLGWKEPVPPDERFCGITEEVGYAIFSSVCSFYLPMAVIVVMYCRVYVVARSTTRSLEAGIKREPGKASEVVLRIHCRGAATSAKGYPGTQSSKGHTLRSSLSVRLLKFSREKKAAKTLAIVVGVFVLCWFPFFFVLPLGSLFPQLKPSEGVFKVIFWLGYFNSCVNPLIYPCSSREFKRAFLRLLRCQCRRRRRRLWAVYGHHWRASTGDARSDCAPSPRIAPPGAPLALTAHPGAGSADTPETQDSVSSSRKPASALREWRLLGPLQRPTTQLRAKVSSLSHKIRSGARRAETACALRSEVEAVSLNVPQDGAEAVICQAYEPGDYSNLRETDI
T1 sequence (P43140 whole entry): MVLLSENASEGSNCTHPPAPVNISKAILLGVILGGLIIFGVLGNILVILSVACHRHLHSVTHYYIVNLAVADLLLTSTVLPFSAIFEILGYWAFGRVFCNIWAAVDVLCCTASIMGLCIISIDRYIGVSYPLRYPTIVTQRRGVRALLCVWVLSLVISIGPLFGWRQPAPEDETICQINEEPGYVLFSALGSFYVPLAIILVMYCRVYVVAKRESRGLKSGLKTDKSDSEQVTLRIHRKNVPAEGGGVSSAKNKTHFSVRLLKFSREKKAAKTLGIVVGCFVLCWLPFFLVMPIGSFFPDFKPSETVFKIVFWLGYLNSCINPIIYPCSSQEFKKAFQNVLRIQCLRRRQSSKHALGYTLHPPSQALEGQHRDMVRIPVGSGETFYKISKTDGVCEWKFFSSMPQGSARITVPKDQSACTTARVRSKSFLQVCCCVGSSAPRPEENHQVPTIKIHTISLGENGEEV

[2] = biological target: T2, 5-hydroxytryptamine receptor 1A (Homo sapiens) (UniProt P08908); assay: Biased agonist activity at human recombinant 5-HT1A receptor stably expressed in CHO-K1 cells assessed as increase in calcium mobilization measured at 2 sec intervals for 180 secs by Fluo-4AM dye based fluorescence assay relative to serotonin; assay type: functional, cell-based; settings: time 180.0 sec
T2 sequence (whole entry): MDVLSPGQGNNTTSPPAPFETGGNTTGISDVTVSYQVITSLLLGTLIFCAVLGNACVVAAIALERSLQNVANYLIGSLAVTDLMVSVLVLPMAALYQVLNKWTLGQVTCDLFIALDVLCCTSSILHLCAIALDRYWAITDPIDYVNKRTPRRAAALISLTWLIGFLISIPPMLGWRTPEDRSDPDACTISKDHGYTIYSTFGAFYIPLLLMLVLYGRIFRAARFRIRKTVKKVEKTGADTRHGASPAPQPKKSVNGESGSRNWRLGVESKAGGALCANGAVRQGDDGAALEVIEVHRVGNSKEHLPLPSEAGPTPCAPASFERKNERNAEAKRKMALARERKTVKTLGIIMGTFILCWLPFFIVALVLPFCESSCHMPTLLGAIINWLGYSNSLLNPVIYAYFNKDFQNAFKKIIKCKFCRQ

[3] = biological target: T2, 5-hydroxytryptamine receptor 1A (Homo sapiens); assay: Biased agonist activity at human recombinant 5-HT1A receptor stably expressed in CHO-K1 cells assessed as increase in ERK1/2 phosphorylation levels incubated for 15 mins by Alphalisa assay relative to serotonin; assay type: cell-based; settings: filed as agonist
[4] = biological target: T2, 5-hydroxytryptamine receptor 1A (Homo sapiens); assay: Biased agonist activity at human recombinant 5-HT1A receptor stably expressed in CHO-K1 cells assessed as inhibition of forskolin-induced cAMP accumulation after 40 mins by LANCE Ultra cAMP kit-based TR-FRET assay relative to serotonin; assay type: functional, cell-based
[5] = biological target: T2, 5-hydroxytryptamine receptor 1A (Homo sapiens); assay: Biased agonist activity at Gal4-VP16 transcription factor linked human 5-HT1A receptor expressed in human U2OS cells assessed as stimulation of beta-arrestin recruitment measured after 5 hrs by Tango assay relative to serotonin; assay type: cell-based; settings: filed as agonist
D(2) dopamine receptor = D(2) dopamine receptor (Homo sapiens, UniProt P14416); assay: Displacement of [3H]-methylspiperone from recombinant human D2 receptor stably expressed in CHO-K1 cell membranes measured after 60 mins by microbeta2 scintillation counting method; set-up: species or system Cell membrane
D(2) dopamine receptor, sequence (P14416 whole entry): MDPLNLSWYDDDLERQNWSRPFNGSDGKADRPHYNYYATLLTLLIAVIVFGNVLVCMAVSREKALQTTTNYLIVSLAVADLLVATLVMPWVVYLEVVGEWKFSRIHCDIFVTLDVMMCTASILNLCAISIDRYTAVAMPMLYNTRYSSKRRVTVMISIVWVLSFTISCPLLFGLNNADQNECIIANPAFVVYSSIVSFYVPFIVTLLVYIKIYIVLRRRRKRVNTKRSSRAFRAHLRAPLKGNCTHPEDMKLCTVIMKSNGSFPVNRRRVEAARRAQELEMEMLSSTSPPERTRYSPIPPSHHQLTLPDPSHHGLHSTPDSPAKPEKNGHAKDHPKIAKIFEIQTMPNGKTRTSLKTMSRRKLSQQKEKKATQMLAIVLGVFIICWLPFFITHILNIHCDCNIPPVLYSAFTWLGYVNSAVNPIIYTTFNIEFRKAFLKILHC

[6] = biological target: T3, 5-hydroxytryptamine receptor 1A (Homo sapiens, UniProt P08908); assay: Displacement of [3H]8-OH-DPAT from recombinant human 5HT1A receptor stably expressed in CHO-K1 cell membranes measured after 60 mins by microbeta2 scintillation counting method; set-up: species or system Cell membrane
T3 sequence (P08908 whole entry): T2 sequence (whole entry)

Rattus norvegicus [7] = assay: Antidepressant-like activity in Wistar rat assessed as minimum effective dose causing reduction in immobility time after sc administration with compound 60 mins prior to testing and measured for 5 mins test period by Porsolt-forced swim test; assay type: functional; settings: 1 h, read-out: MED
Rattus norvegicus [8] = assay: Antidepressant-like activity in Wistar rat assessed as reduction in immobility time at 0.63 mg/kg, sc administered 60 mins prior to testing and measured for 5 mins test period by Porsolt-forced swim test; assay type: functional; set-up: scale not given: the % may be the effect or the level left; settings: time 65 min, 1.083 h
[9] = Toxicity in Wistar rat assessed as minimum effective dose causing effect on flat body posture administered subcutaneously with compound and observed after 60 mins post treatment; settings: in vivo, sc, 1 h
[10] = biological target: T3, 5-hydroxytryptamine receptor 1A; assay: Biased agonist activity at human recombinant 5-HT1A receptor stably expressed in CHO-K1 cells assessed as inhibition of forskolin-induced cAMP accumulation after 40 mins by LANCE Ultra cAMP kit-based TR-FRET assay; assay type: functional, cell-based
[11] = biological target: T3, 5-hydroxytryptamine receptor 1A; assay: Biased agonist activity at human recombinant 5-HT1A receptor stably expressed in CHO-K1 cells assessed as increase in ERK1/2 phosphorylation levels incubated for 15 mins by Alphalisa assay; assay type: cell-based
Rattus norvegicus [12] = assay: Antidepressant-like activity in Wistar rat assessed as minimum effective dose causing reduction in immobility time after oral administration with compound 60 mins prior to testing and measured for 5 mins test period by Porsolt-forced swim test; assay type: functional; settings: 1.083 h, time 65 min, read-out: MED
[13] = biological target: T3, 5-hydroxytryptamine receptor 1A; assay: Biased agonist activity at human recombinant 5-HT1A receptor stably expressed in CHO-K1 cells assessed as increase in calcium mobilization measured at 2 sec intervals for 180 secs by Fluo-4AM dye based fluorescence assay; assay type: functional, cell-based
Rattus norvegicus [14] = assay: Antidepressant-like activity in Wistar rat assessed as maximum effective dose causing reduction in immobility time after oral administration with compound 60 mins prior to testing and measured for 5 mins test period by Porsolt-forced swim test; assay type: functional; settings: time 65 min; 1.083 h
in vitro = settings: human, liver microsomes
[15] = Permeability of compound across basolateral to apical side in human Caco-2 cells at pH 7.4; assay type: ADME, cell-based; settings: Caco-2, pH 7.4, read-out: permeability
Rattus norvegicus [16] = assay: Antidepressant-like activity in Wistar rat assessed as reduction in immobility time at 15 mg/kg, ip administered 60 mins prior to testing and measured for 5 mins test period by Porsolt-forced swim test; assay type: functional; set-up: scale not given: the % may be the effect or the level left; settings: time 65 min, 1.083 h
Rattus norvegicus [17] = assay: Antidepressant-like activity in Wistar rat assessed as minimum effective dose causing reduction in immobility time administered intraperitoneally with compound 60 mins prior to testing and measured for 5 mins test period by Porsolt-forced swim test; assay type: functional; settings: ip, 1.083 h, time 65 min, read-out: MED

O=C(c1ccc(F)c(Cl)c1)N1CCC(F)(CNCCOc2cccnc2)CC1
pKi [1]: < 6
Emax ([2]; filed as agonist): 98%
Emax [3]: 99%
Emax ([4]; filed as agonist): 100%
Emax [5]: 101%

O=C(c1ccc(F)c(Cl)c1)N1CCC(F)(CNCCOc2ccnnc2)CC1
Ki (D(2) dopamine receptor): > 1000 nM
pKi [1]: < 6
Ki [6]: 200 nM

CCCN(CCC)C1CCc2cccc(O)c2C1 (racemic) [8-OH-DPAT]
minimal effective dose (Rattus norvegicus [7]): 0.16 mg/kg
Activity (Rattus norvegicus [8]): 90%
Emax [3]: 93%
Emax ([4]; filed as partial agonist): 63%
MED [9]: 0.63 mg/kg

Cc1cnc(CNCC2(F)CCN(C(=O)c3ccc(F)c(Cl)c3)CC2)nc1
EC50 [10]: 60.3 nM
Ki (D(2) dopamine receptor): > 1000 nM
EC50 [11]: 4.68 nM
minimal effective dose (Rattus norvegicus [12]): 0.63 mg/kg
Ki [6]: 2.19 nM
EC50 [13]: 245 nM
ED (Rattus norvegicus [14]): 5 mg/kg

CC(C)NCC(O)COc1cccc2ccccc12 (centres undefined) [PROPRANOLOL]
half-life at 0.1 µM (in vitro): > 1 h
Papp B→A [15]: 27.4 ×10⁻⁶ cm/s

CNC1(c2ccccc2Cl)CCCCC1=O (centres undefined) [KETAMINE]
Activity (Rattus norvegicus [16]): 43%
minimal effective dose (Rattus norvegicus [17]): 5 mg/kg

O=C(c1ccc(F)c(Cl)c1)N1CCC(F)(CNCCOc2ccncc2)CC1
Ki (D(2) dopamine receptor): > 1000 nM
pKi [1]: < 6
Ki [6]: 389 nM

O=C(c1ccc(F)c(Cl)c1)N1CCC(F)(CNCCSc2ccccn2)CC1
Emax ([2]; filed as partial agonist): 73%
Emax [3]: 84%
Emax ([4]; filed as agonist): 76%
Emax [5]: 102%

O=C(c1ccc(F)c(Cl)c1)N1CCC(F)(CNCCOc2cnccn2)CC1
pKi [1]: < 6
Emax ([2]; filed as agonist): 89%
Emax [3]: 100%
Emax ([4]; filed as agonist): 90%
Emax [5]: 97%

O=C(c1ccc(F)c(Cl)c1)N1CCC(F)(CNCCOc2cncnc2)CC1
Ki (D(2) dopamine receptor): > 1000 nM
pKi [1]: < 6
Ki [6]: 209 nM

O=C(c1ccc(F)c(Cl)c1)N1CCC(F)(CNCCNc2ccccc2)CC1
pKi [1]: < 6
Emax ([2]; filed as partial agonist): 65%
Emax [3]: 81%
Emax ([4]; filed as agonist): 79%
Emax [5]: 104%
